Laboratory results published in US20030013658A1, “Small peptides and methods for treatment of asthma and inflammation” (Hisatek, LLC, priority 1997, published 2003).
“Also recorded” adds a separate entry of the source. Where no end group is shown, it is not given here. The star is where a group is joined. For = O=C*

Tested on: OVA-sensitized/challenged mice
Experiment: OVA allergen-induced airway inflammation mouse model, 28-day protocol, HK-X i.n. before each challenge
Assay type: in vivo
Description: The above-described murine model reproduces key features of human asthma. Late-phase allergen-specific pulmonary disease was induced in normal BALB/c mice using ovalbumin (OVA) as allergen. One protocol includes immunization of mice with i.p. OVA on […] and 14, and intranasal (i.n.) administration of OVA on days 14, 25, 26, and 27.
In a mouse model of allergen-induced airway inflammation, the role of mast cell in airway eosinophil infiltration, mucus release, and hyper-responsiveness to methacholine was examined.
Materials were used as described above. Mice received an i.p. injection of 0.2 ml (100 ug) of OVA complexed with aluminum potassium sulfate (alum) on day 0 and 14. On days 14, 25, 26, and 27, mice were anesthetized with 0.2 ml i.p. of ketamine (0.44 mg/ml)/xylazine (6.3 mg/ml) in normal saline before receiving an intranasal (i.n.) dose of 100 ug OVA in 0.05 ml normal saline on days 25, 26, and 27. Lung tissue was obtained 24 hours after the last i.n. challenge on day 28. The control group received normal saline with alum i.p. on days 0 and 14 and normal saline without alum i.n. on days 14, 25, 26, and 27. To assess the effect of HK-X inhibition on OVA induced asthma, HK-X (10 ug/ml) was given i.n. 30 minutes before each i.n challenge on days 25, 26, and 27.
After tying off the left lung at the mainstem bronchus, the right lung was […] three times with 0.4 ml of normal saline, Bronchoalveolar lavage (BAL) fluid cells from a 0.05 ml aliquot of the pooled sample were counted using a hemocytometer and the remaining fluid centrifuged at 4° C. for 10 minutes at 200 g. After resuspension of the cell pellet in normal saline containing 10% BSA, BAL cell smears were made on glass slides. To stain eosinophils, dried slides were stained with Discombe's diluting fluid (0.05% aqueous eosin and 5% (v/v) acetone in distilled water) for 5-8 minutes, rinsed with water for 0.5 minutes and counterstained with 0.07 methylene blue for 2 minutes.
Following BAL, the trachea and left lung (upper and lower lobes) were obtained and fixed in 10% buffered formalin solution at 20° C. for1S hours. After the tissues were processed and embeded in paraffin, the tissues were cut into 5 μm sections and stained with Discombe's solution and counterstained with methylene blue as described above or stained with Hematoxylin and eosin. The eosinophil number per unit airway area (2200 μm^2) was determined by morphometry as previously described. Airway mucus was identified by a variety of staining methods, i.e., methylene blue, Hematoxylin and eosin, mucicarmine, toluidine blue, alcian blue, and alcian blue/periodic acid Schiff (PAS) reaction. Mucin was stained with mucicarmine solution; metanil yellow counterstain was employed. Mucin and sialic acid-rich non-sulfated mucosubstances were stained metachromatically with toluidine blue, pH 4.5. Acidic mucin and sulfated mucosubstances were stained with alcian blue, pH 2.5; nuclear fast red counterstain was used. Neutral and acidic mucosubstances were identified by alcian blue, pH 2.5 and PAS reaction. The degree of mucus plugging of the airways (0.5˜0.8 mm in diameter) also was assessed by morphometry. The percent occlusion of airway diameter by mucus was classified on a semiquantitative scale from 0 to +++++. The histologic and morphometric analyses protocol design were performed by individuals blinded to the protocol design.
Mucus glycoproteins in BAL fluid were assayed by slot blotting and PAS staining as described. Nitrocellulose membranes (0.2 um pore size; Schleicher & Schuell, Keene, N.H.) were wetted in distilled water and then in normal saline before placement in a Minifold II 72-well slot blot apparatus (Schleicher & Schuell). The BAL fluid samples (0.05 ml) and aliquots (0.05-0.75 ml) of a stock solution (2 ug/ml) of human respiratory mucin glycoprotein were blotted onto the nitrocellulose membranes by water suction vacuum, and mucus glycoproteins were visualized by PAS reaction. […]

f-Met-Leu-Phe-Phe (For-MLFF) [Example 9]
cellular infiltration during asthmatic attack (10 μg HK-X intranasally 30 minutes prior to challenge, FIG. 9): reduces the cellular infiltration
eosinophil influx into lung tissue and BAL fluid (HK-X 10 ug/ml i.n. 30 minutes before each i.n. challenge, day 28): markedly reduced eosinophil influx into the lung tissue and BAL fluid
airway mucus release / secretion (HK-X i.n. 30 minutes before each OVA challenge days 25, 26, 27, histopathology, listed as HK-X): prevented airway mucus release; also recorded: blocked the airway mucus release; also recorded: prevents the airway mucus secretion; also recorded: reduces the mucus secretion in airways
number of eosinophils in the BAL fluid (OVA-sensitized/challenged mice treated with HK-X, in ×10^5 cells): 0.57+0.11 ×10^5
mucus cell induction by OVA immunization and challenge (alcian blue histochemistry, FIG. 10): prevents the mucus cell induction by OVA immunization and challenge
reduction of eosinophil influx into the lung interstitium (morphometric analysis, p<0.006 compared to OVA without HK-X, FIG. 11): 90%
